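Where inhibition never reached the appropriate level, the endpoint shown equals the highest concentration tested. Otherwise, values were interpolated linearly from a five-concentration, 48-hour dose response in 96-well plates. TGI: total growth inhibition.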
Experiments:
Test in all cases: NCI-60 cell line screen, 48 h
[1] = tested on: OVCAR-3 ovarian
[2] = tested on: RXF 393 renal
[3] = tested on: BT-549 breast
[4] = tested on: A549 NSCLC
[5] = tested on: ACHN renal
[6] = tested on: HL-60(TB) leukemia
[7] = tested on: MDA-MB-435
[8] = tested on: PC-3 prostate
[9] = tested on: HCT-116 colon
[10] = tested on: HCC-2998 colon

## C=C(C)[C@@]1(O)O[C@H]2C[C@@]3(C)OC(=CC3=O)/C(C)=C\[C@@H]3OC(=O)[C@@]1(C)[C@H]32
[1]
  TGI: 34.2 µM
[2]
  TGI: 26.8 µM
[3]
  TGI: 23.9 µM
[4]
  TGI: > 93.3 µM
[5]
  TGI: > 77.1 µM
[6]
  TGI: > 47.2 µM
[7]
  TGI: > 100 µM
[8]
  TGI: 78.4 µM
[9]
  TGI: 20.6 µM
[10]
  TGI: 35.1 µM

## Clc1ccc2c(SCC3CO3)c3ccccc3nc2c1 (stereo not drawn)
[1]
  TGI: 3.27 µM
[2]
  TGI: 8.08 µM
[3]
  TGI: 18.7 µM
[4]
  TGI: 20.3 µM
[5]
  TGI: 4.55 µM
[6]
  TGI: 2.59 µM
[7]
  TGI: 20.2 µM
[8]
  TGI: 6.86 µM
[9]
  TGI: 3.04 µM
[10]
  TGI: 9.55 µM

## CCOc1cc2c(cc1O)/C(=N\N)C[C@@H]1[C@@H]2CC[C@]2(C)[C@@H](O)CC[C@@H]12
[1]
  TGI: 12.4 µM
[2]
  TGI: 36.2 µM
[3]
  TGI: 29.8 µM
[4]
  TGI: > 100 µM
[5]
  TGI: > 100 µM
[6]
  TGI: > 61.9 µM
[7]
  TGI: 4.95 µM
[8]
  TGI: > 80.1 µM
[9]
  TGI: > 37.8 µM
[10]
  TGI: 12.8 µM

## CCOc1ccc2nc(NC(=O)C(=O)C(C(=O)c3ccccc3-c3ccccc3)C3OC(=O)c4ccccc43)sc2c1 (stereo not drawn)
[1]
  TGI: 89.8 µM
[2]
  TGI: 18.1 µM
[3]
  TGI: 81.7 µM
[4]
  TGI: > 71.2 µM
[5]
  TGI: > 100 µM
[6]
  TGI: 68.7 µM
[7]
  TGI: 65.1 µM
[8]
  TGI: 41.7 µM
[9]
  TGI: 33.7 µM
[10]
  TGI: 33.1 µM

## CCOC(=O)c1ccc(N=NN(C)C(=O)C(C)N)cc1 (stereo not drawn)
[1]
  TGI: > 100 µM
[2]
  TGI: > 100 µM
[3]
  TGI: > 100 µM
[5]
  TGI: > 100 µM
[6]
  TGI: > 100 µM
[7]
  TGI: > 100 µM
[8]
  TGI: > 100 µM
[9]
  TGI: > 100 µM
[10]
  TGI: > 100 µM

## OCC1OC(c2scc3c(=S)nc[nH]c23)C(O)C1O (stereo not drawn)
[1]
  TGI: 8.33 µM
[2]
  TGI: > 100 µM
[3]
  TGI: > 100 µM
[4]
  TGI: > 100 µM
[5]
  TGI: > 67.8 µM
[6]
  TGI: 21.4 µM
[7]
  TGI: > 100 µM
[8]
  TGI: > 84.9 µM
[9]
  TGI: > 84.3 µM
[10]
  TGI: > 97.2 µM

## CNC(=O)c1ccccc1-[s+]1c2ccccc2c(=O)n1C (stereo not drawn)
[1]
  TGI: > 100 µM
[2]
  TGI: > 100 µM
[3]
  TGI: > 100 µM
[4]
  TGI: > 100 µM
[5]
  TGI: > 100 µM
[6]
  TGI: > 100 µM
[7]
  TGI: > 100 µM
[8]
  TGI: > 100 µM
[9]
  TGI: > 100 µM

## O=C(O)[C@H]1[C@@H](C2CCCCC2)O[C@@H](C2CCCCC2)O[C@H]1C(F)(F)F
[1]
  TGI: 39 µM
[2]
  TGI: 48.4 µM
[3]
  TGI: 98.6 µM
[4]
  TGI: 42.4 µM
[5]
  TGI: 32.7 µM
[6]
  TGI: 62.6 µM
[7]
  TGI: 35.5 µM
[8]
  TGI: 32.1 µM
[9]
  TGI: > 100 µM
[10]
  TGI: 38.8 µM

## C=C(C)[C@@H]1CC[C@]2(C(=O)O)CC[C@]3(C)[C@H](CC[C@@H]4[C@@]5(C)CC(=O)C(C)(C)[C@@H]5CC[C@]43C)[C@@H]12
[1]
  TGI: 21.4 µM
[2]
  TGI: > 25 µM
[3]
  TGI: > 25 µM
[4]
  TGI: > 25 µM
[5]
  TGI: > 25 µM
[6]
  TGI: 1.61 µM
[7]
  TGI: > 25 µM
[8]
  TGI: 19.7 µM
[9]
  TGI: 8.83 µM
[10]
  TGI: 12 µM

From PubChem BioAssay (NCI)
